Measured values taken from patent US8192962B2, “Processes for detecting toxic substances” (Daikin Industries, Ltd., priority 2001, dated 2012).

System: Transport facilitation protein genes
Assay: DNA chip mRNA expression in yeast, transport facilitation protein genes (Table 5)
Type: cell-based, Saccharomyces cerevisiae S288C
How it was run: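 Chemical exposure: 2 h, log-phase S. cerevisiae S288C, YPD, 25° C., dose set to inhibit growth without death. Profiling: mRNA labeled by reverse transcription with Cy3- or Cy5-dUTP, hybridized to whole-genome array. Output: fluorescence ratio against untreated culture.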

CCCCCCCCCCCCc1ccc(S(=O)(=O)[O-])cc1.[Na+] [(17), sodium dodecylbenzosulfonate]
The level of expressed mRNA in the presence of chemical substance/The level of expressed mRNA in the absence of chemical substance (yeast gene YGR224W): 2.8
The level of expressed mRNA in the presence of chemical substance/The level of expressed mRNA in the absence of chemical substance (yeast gene YGR260W): 0.9
The level of expressed mRNA in the presence of chemical substance/The level of expressed mRNA in the absence of chemical substance (yeast gene YGR281W): 2.8
The level of expressed mRNA in the presence of chemical substance/The level of expressed mRNA in the absence of chemical substance (yeast gene YHL035C): 1.1
The level of expressed mRNA in the presence of chemical substance/The level of expressed mRNA in the absence of chemical substance (yeast gene YHL040C): 1.4
The level of expressed mRNA in the presence of chemical substance/The level of expressed mRNA in the absence of chemical substance (yeast gene YHL047C): 1.2
The level of expressed mRNA in the presence of chemical substance/The level of expressed mRNA in the absence of chemical substance (yeast gene YHR026W): 0.9
The level of expressed mRNA in the presence of chemical substance/The level of expressed mRNA in the absence of chemical substance (yeast gene YHR092C): 0.9
The level of expressed mRNA in the presence of chemical substance/The level of expressed mRNA in the absence of chemical substance (yeast gene YHR094C): 1.4
The level of expressed mRNA in the presence of chemical substance/The level of expressed mRNA in the absence of chemical substance (yeast gene YHR175W): 1.3
The level of expressed mRNA in the presence of chemical substance/The level of expressed mRNA in the absence of chemical substance (yeast gene YIL006W): 0.8
The level of expressed mRNA in the presence of chemical substance/The level of expressed mRNA in the absence of chemical substance (yeast gene YIL022W): 0.8
The level of expressed mRNA in the presence of chemical substance/The level of expressed mRNA in the absence of chemical substance (yeast gene YIL056W): 1.5
The level of expressed mRNA in the presence of chemical substance/The level of expressed mRNA in the absence of chemical substance (yeast gene YIL088C): 1.2
The level of expressed mRNA in the presence of chemical substance/The level of expressed mRNA in the absence of chemical substance (yeast gene YJL034W): 1.1
The level of expressed mRNA in the presence of chemical substance/The level of expressed mRNA in the absence of chemical substance (yeast gene YJL212C): 0.6
The level of expressed mRNA in the presence of chemical substance/The level of expressed mRNA in the absence of chemical substance (yeast gene YJL219W): 1.6
The level of expressed mRNA in the presence of chemical substance/The level of expressed mRNA in the absence of chemical substance (yeast gene YJR077C): 1.0
The level of expressed mRNA in the presence of chemical substance/The level of expressed mRNA in the absence of chemical substance (yeast gene YJR106W): 1.2
The level of expressed mRNA in the presence of chemical substance/The level of expressed mRNA in the absence of chemical substance (yeast gene YJR121W): 1.1
The level of expressed mRNA in the presence of chemical substance/The level of expressed mRNA in the absence of chemical substance (yeast gene YKL016C): 1.0
The level of expressed mRNA in the presence of chemical substance/The level of expressed mRNA in the absence of chemical substance (yeast gene YKL146W): 1.0
The level of expressed mRNA in the presence of chemical substance/The level of expressed mRNA in the absence of chemical substance (yeast gene YKR039W): 0.9
The level of expressed mRNA in the presence of chemical substance/The level of expressed mRNA in the absence of chemical substance (yeast gene YKR067W): 0.8
The level of expressed mRNA in the presence of chemical substance/The level of expressed mRNA in the absence of chemical substance (yeast gene YLL028W): 1.2
The level of expressed mRNA in the presence of chemical substance/The level of expressed mRNA in the absence of chemical substance (yeast gene YLR081W): 0.7
The level of expressed mRNA in the presence of chemical substance/The level of expressed mRNA in the absence of chemical substance (yeast gene YLR295C): 0.9
The level of expressed mRNA in the presence of chemical substance/The level of expressed mRNA in the absence of chemical substance (yeast gene YLR348C): 1.1
The level of expressed mRNA in the presence of chemical substance/The level of expressed mRNA in the absence of chemical substance (yeast gene YLR378C): 0.9
The level of expressed mRNA in the presence of chemical substance/The level of expressed mRNA in the absence of chemical substance (yeast gene YMR011W): 1.3
The level of expressed mRNA in the presence of chemical substance/The level of expressed mRNA in the absence of chemical substance (yeast gene YMR162C): 0.8
The level of expressed mRNA in the presence of chemical substance/The level of expressed mRNA in the absence of chemical substance (yeast gene YMR203W): 0.8
The level of expressed mRNA in the presence of chemical substance/The level of expressed mRNA in the absence of chemical substance (yeast gene YNL055C): 1.2
The level of expressed mRNA in the presence of chemical substance/The level of expressed mRNA in the absence of chemical substance (yeast gene YNL259C): 2.6
The level of expressed mRNA in the presence of chemical substance/The level of expressed mRNA in the absence of chemical substance (yeast gene YNR072W): 1.3
The level of expressed mRNA in the presence of chemical substance/The level of expressed mRNA in the absence of chemical substance (yeast gene YOL119C): 1.4
The level of expressed mRNA in the presence of chemical substance/The level of expressed mRNA in the absence of chemical substance (yeast gene YOL156W): 0.9
The level of expressed mRNA in the presence of chemical substance/The level of expressed mRNA in the absence of chemical substance (yeast gene YOL163W): 0.8
The level of expressed mRNA in the presence of chemical substance/The level of expressed mRNA in the absence of chemical substance (yeast gene YOR035C): 1.6
The level of expressed mRNA in the presence of chemical substance/The level of expressed mRNA in the absence of chemical substance (yeast gene YOR130C): 1.5
The level of expressed mRNA in the presence of chemical substance/The level of expressed mRNA in the absence of chemical substance (yeast gene YOR153W): 2.5
The level of expressed mRNA in the presence of chemical substance/The level of expressed mRNA in the absence of chemical substance (yeast gene YOR273C): 3.2
The level of expressed mRNA in the presence of chemical substance/The level of expressed mRNA in the absence of chemical substance (yeast gene YOR316C): 0.8
The level of expressed mRNA in the presence of chemical substance/The level of expressed mRNA in the absence of chemical substance (yeast gene YOR332W): 1.3
The level of expressed mRNA in the presence of chemical substance/The level of expressed mRNA in the absence of chemical substance (yeast gene YOR348C): 0.9
The level of expressed mRNA in the presence of chemical substance/The level of expressed mRNA in the absence of chemical substance (yeast gene YPL036W): 0.4
The level of expressed mRNA in the presence of chemical substance/The level of expressed mRNA in the absence of chemical substance (yeast gene YPL134C): 1.3
The level of expressed mRNA in the presence of chemical substance/The level of expressed mRNA in the absence of chemical substance (yeast gene YPL271W): 1.2
The level of expressed mRNA in the presence of chemical substance/The level of expressed mRNA in the absence of chemical substance (yeast gene YPR192W): 1.6
The level of expressed mRNA in the presence of chemical substance/The level of expressed mRNA in the absence of chemical substance (yeast gene YPR194C): 1.0
